Converted amounts (≈) assume the structure as drawn.
Legend:
ART24 [1] = assay: Antibiotic susceptibility of ART24, MIC, VetMIC panels (Table 2); format: cell-based, Bacillus amyloliquefaciens; conditions: for MIC: Bacillus amyloliquefaciens, read-out: ART24 MIC
Protocol: The minimum inhibitory concentration (MIC) of the listed antimicrobials is expressed as μg/mL. […] The wells of the prefabricated 96-well plates were filled with 100 μL of the final suspension. The plates were sealed with an […], Sigma Aldrich) sealing film (to facilitate growth of the aerobic Bacillus. The plates were then incubated for 24 hr at 37° C. The results are recorded after 24 hours as the lowest concentration of the antibiotic to inhibit visible growth. The prefabricated panels […], Uppsala, Sweden) comprising the antibiotics ampicillin, vancomycin, gentamicin, kanamycin, streptomycin, erythromycin, clindamycin, tetracycline, chloramphenicol, neomycin, penicillin, quinupristin-dalfopristin, linezolid, trimethoprim, ciprofloxacin and rifampicin were used.

ART24 [2] = assay: Antibiotic susceptibility of ART24 lots and cell banks, MIC following EFSA testing recommendations (Table 3); format: cell-based, Bacillus amyloliquefaciens; conditions: for MIC: Bacillus amyloliquefaciens
Protocol: The minimum inhibitory concentration (MIC) of the listed antimicrobials is expressed as μg/mL. Additional studies following EFSA testing recommendations were performed on lyophilized ART24 lots CO-33-10A2 and CO-33-12A2 and Research and Master Cell Banks CO-33-ART24 BHI and CO-33-ART24 SYD, and those results are shown in Table 3.

[3] = 24 hr at 37° C., average results from N = 6
[4] = ART24 source: cell bank CO-33 ART 24 BHI
[5] = ART24 source: cell bank CO-33 ART 024 SYD
[6] = ART24 source: lyophilized lot CO-33-10A2
[7] = ART24 source: lyophilized lot CO-33-12A2
[8] = ART24 source: cell bank CO-33 ART 24 BHI, read-out: MIC, CO-33 ART 24 BHI
[9] = ART24 source: cell bank CO-33 ART 024 SYD, read-out: MIC, CO-33 ART 024 SYD
[10] = ART24 source: lyophilized lot CO-33-10A2, read-out: MIC, CO-33-10A2
[11] = ART24 source: lyophilized lot CO-33-12A2, read-out: MIC, CO-33-12A2

| Compound | MIC (ART24 [1]; [3]) [µg/mL] | MIC interpretation, CO-33 ART 24 BHI (ART24 [2]; [4]) | MIC interpretation, CO-33 ART 024 SYD (ART24 [2]; [5]) | MIC interpretation, CO-33-10A2 (ART24 [2]; [6]) | MIC interpretation, CO-33-12A2 (ART24 [2]; [7]) | MIC (ART24 [2]; [8]) [µg/mL] | MIC (ART24 [2]; [9]) [µg/mL] | MIC (ART24 [2]; [10]) [µg/mL] | MIC (ART24 [2]; [11]) [µg/mL] | other results |
| --- | --- | --- | --- | --- | --- | --- | --- | --- | --- | --- |
| CC1(C)S[C@@H]2[C@H](NC(=O)[C@H](N)c3ccccc3)C(=O)N2[C@H]1C(=O)O [Ampicillin] | 0.25 (≈ 0.715 µM) | S | S | S | S | ≤ 0.03 | ≤ 0.03 | ≤ 0.03 | ≤ 0.03 | – |
| CN(C)[C@@H]1C(O)=C(C(N)=O)C(=O)[C@@]2(O)C(O)=C3C(=O)c4c(O)cccc4[C@@](C)(O)[C@H]3C[C@@H]12 [Tetracycline] | 4 (≈ 9 µM) | S | S | S | S | 2 (≈ 4.5 µM) | 2 (≈ 4.5 µM) | 2 (≈ 4.5 µM) | 2 (≈ 4.5 µM) | – |
| Cc1ncc([N+](=O)[O-])n1CCO [Metronidazole] | – | – | – | – | – | – | – | – | – | MIC (ART24 [2]; aerobic, ART24 source CO-33-10A2, read-out: MIC, CO-33-10A2 (aerobic)): > 64 µg/mL; MIC (ART24 [2]; aerobic, ART24 source CO-33-12A2, read-out: MIC, CO-33-12A2 (aerobic)): > 64 µg/mL; MIC (ART24 [2]; aerobic, ART24 source CO-33 ART 24 BHI, read-out: MIC, CO-33 ART 24 BHI (aerobic)): > 64 µg/mL; MIC (ART24 [2]; aerobic, ART24 source CO-33 ART 024 SYD, read-out: MIC, CO-33 ART 024 SYD (aerobic)): > 64 µg/mL; MIC (ART24 [2]; anaerobic, ART24 source CO-33-10A2, read-out: MIC, CO-33-10A2 (anaerobic)): 64 µg/mL (≈ 374 µM); MIC (ART24 [2]; anaerobic, ART24 source CO-33-12A2, read-out: MIC, CO-33-12A2 (anaerobic)): 64 µg/mL (≈ 374 µM); MIC (ART24 [2]; anaerobic, ART24 source CO-33 ART 24 BHI, read-out: MIC, CO-33 ART 24 BHI (anaerobic)): 64 µg/mL (≈ 374 µM); MIC (ART24 [2]; anaerobic, ART24 source CO-33 ART 024 SYD, read-out: MIC, CO-33 ART 024 SYD (anaerobic)): 64 µg/mL (≈ 374 µM) |
| CCC[C@@H]1C[C@@H](C(=O)N[C@@H]([C@H]2O[C@H](SC)[C@H](O)[C@@H](O)[C@H]2O)[C@H](C)Cl)N(C)C1 [Clindamycin] | 0.5 to 1 (≈ 1.18 to 2.35 µM) | S | S | S | S | 0.25 (≈ 0.588 µM) | 0.25 (≈ 0.588 µM) | 0.12 (≈ 0.282 µM) | 0.25 (≈ 0.588 µM) | – |
| O=C(N[C@H](CO)[C@H](O)c1ccc([N+](=O)[O-])cc1)C(Cl)Cl [Chloramphenicol] | 4 (≈ 12.4 µM) | S | S | S | S | 2 (≈ 6.19 µM) | 2 (≈ 6.19 µM) | 2 (≈ 6.19 µM) | 2 (≈ 6.19 µM) | – |
| CCc1c(Cl)c(O)c(Cl)c(O)c1C(=O)O[C@H]1[C@H](O)[C@H](OC)[C@H](OC/C2=C\C=C\C[C@H](O)/C(C)=C/[C@H](CC)[C@@H](O[C@@H]3OC(C)(C)[C@@H](OC(=O)C(C)C)[C@H](O)[C@@H]3O)/C(C)=C/C(C)=C/C[C@@H]([C@@H](C)O)OC2=O)O[C@@H]1C [Fidaxomicin] | – | – | – | – | – | 4 (≈ 3.78 µM) | 4 (≈ 3.78 µM) | 2 (≈ 1.89 µM) | 4 (≈ 3.78 µM) | – |
| CN[C@H](CC(C)C)C(=O)N[C@H]1C(=O)N[C@@H](CC(N)=O)C(=O)N[C@H]2C(=O)N[C@H]3C(=O)N[C@H](C(=O)N[C@H](C(=O)O)c4cc(O)cc(O)c4-c4cc3ccc4O)[C@H](O)c3ccc(c(Cl)c3)Oc3cc2cc(c3O[C@@H]2O[C@H](CO)[C@@H](O)[C@H](O)[C@H]2O[C@H]2C[C@](C)(N)[C@H](O)[C@H](C)O2)Oc2ccc(cc2Cl)[C@H]1O [Vancomycin] | – | S | S | S | S | – | – | – | – | MIC (ART24 [1]; 24 h): 0.5 to 1 µg/mL (≈ 0.345 to 0.69 µM); MIC (ART24 [2]; read-out: MIC, CO-33-10A2): ≤ 0.25 µg/mL; MIC (ART24 [2]; read-out: MIC, CO-33-12A2): ≤ 0.25 µg/mL; MIC (ART24 [2]; read-out: MIC, CO-33 ART 24 BHI): 0.5 µg/mL (≈ 0.345 µM); MIC (ART24 [2]; read-out: MIC, CO-33 ART 024 SYD): ≤ 0.25 µg/mL |
| CC[C@H]1OC(=O)[C@H](C)[C@@H](O[C@H]2C[C@@](C)(OC)[C@@H](O)[C@H](C)O2)[C@H](C)[C@@H](O[C@@H]2O[C@H](C)C[C@H](N(C)C)[C@H]2O)[C@](C)(O)C[C@@H](C)C(=O)[C@H](C)[C@@H](O)[C@]1(C)O [Erythromycin] | 0.12 (≈ 0.164 µM) | S | S | S | S | 0.12 (≈ 0.164 µM) | 0.12 (≈ 0.164 µM) | 0.06 (≈ 0.0818 µM) | 0.06 (≈ 0.0818 µM) | – |
| Penicillin | – | S | S | S | S | – | – | – | – | ART24 MIC (ART24 [1]; [3]): 0.12 to 0.5 µg/mL; MIC, CO-33 ART 24 BHI (ART24 [2]; [4]): ≤ 0.03 µg/mL; MIC, CO-33 ART 024 SYD (ART24 [2]; [5]): 0.06 µg/mL; MIC, CO-33-10A2 (ART24 [2]; [6]): ≤ 0.03 µg/mL; MIC, CO-33-12A2 (ART24 [2]; [7]): ≤ 0.03 µg/mL |
| Gentamicin | – | S | S | S | S | – | – | – | – | ART24 MIC (ART24 [1]; [3]): ≤0.5 µg/mL; MIC, CO-33 ART 24 BHI (ART24 [2]; [4]): ≤ 0.06 µg/mL; MIC, CO-33 ART 024 SYD (ART24 [2]; [5]): ≤ 0.06 µg/mL; MIC, CO-33-10A2 (ART24 [2]; [6]): ≤ 0.06 µg/mL; MIC, CO-33-12A2 (ART24 [2]; [7]): ≤ 0.06 µg/mL |
| COc1cc(Cc2cnc(N)nc2N)cc(OC)c1OC [Trimethoprim] | ≤ 0.12 | – | – | – | – | ≤ 0.25 | ≤ 0.25 | ≤ 0.25 | ≤ 0.25 | – |
| Neomycin | – | – | – | – | – | – | – | – | – | ART24 MIC (ART24 [1]; [3]): ≤0.5 µg/mL; MIC, CO-33 ART 24 BHI (ART24 [2]; [4]): ≤0.12 µg/mL; MIC, CO-33 ART 024 SYD (ART24 [2]; [5]): ≤0.12 µg/mL; MIC, CO-33-10A2 (ART24 [2]; [6]): ≤0.12 µg/mL; MIC, CO-33-12A2 (ART24 [2]; [7]): ≤0.12 µg/mL |
| [H]/N=C(/N)N[C@H]1[C@H](O)[C@@H](O)[C@H](O[C@@H]2O[C@@H](C)[C@](O)(C=O)[C@H]2O[C@@H]2O[C@@H](CO)[C@H](O)[C@@H](O)[C@@H]2NC)[C@@H](N/C(N)=N\[H])[C@@H]1O [Streptomycin] | 4 (≈ 6.88 µM) | S | S | S | S | 1 (≈ 1.72 µM) | 2 (≈ 3.44 µM) | 1 (≈ 1.72 µM) | 1 (≈ 1.72 µM) | – |
| CC(=O)NC[C@H]1CN(c2ccc(N3CCOCC3)c(F)c2)C(=O)O1 [Linezolid] | 0.5 (≈ 1.48 µM) | – | – | – | – | 0.5 (≈ 1.48 µM) | 0.5 (≈ 1.48 µM) | 0.25 (≈ 0.741 µM) | 0.5 (≈ 1.48 µM) | – |
| CO[C@H]1/C=C/O[C@@]2(C)Oc3c(C)c(O)c4c(O)c(c(/C=N/N5CCN(C)CC5)c(O)c4c3C2=O)NC(=O)/C(C)=C\C=C\[C@H](C)[C@H](O)[C@@H](C)[C@@H](O)[C@@H](C)[C@H](OC(C)=O)[C@@H]1C [Rifampicin] | 0.5 (≈ 0.608 µM) | S | S | S | S | 0.25 (≈ 0.304 µM) | 0.25 (≈ 0.304 µM) | 0.25 (≈ 0.304 µM) | 0.25 (≈ 0.304 µM) | – |
| Quinupristin-dalfopristin | – | – | – | – | – | – | – | – | – | ART24 MIC (ART24 [1]; [3]): 4 µg/mL; MIC, CO-33 ART 24 BHI (ART24 [2]; [4]): 2 µg/mL; MIC, CO-33 ART 024 SYD (ART24 [2]; [5]): 2 µg/mL; MIC, CO-33-10A2 (ART24 [2]; [6]): 1 µg/mL; MIC, CO-33-12A2 (ART24 [2]; [7]): 2 µg/mL |

Source: patent publication US20250121013A1, “USE OF BACILLUS AMYLOLIQUEFACIENS FOR PREVENTING AND TREATING PARKINSON'S DISEASE” (Artugen Therapeutics Ltd., priority 2021, published 2025)
